# Measured values from a melting point compilation (Tetko et al.).
row,melting point,Structure (SMILES)
1,292 to 294 °C,O=C(O)c1ccccc1C(=O)Nc1ccc(-c2ccccc2)cc1
2,57 to 59 °C,O=C(O)CSCc1ccc(Cl)cc1
3,97 to 99 °C,N#Cc1ccc(Oc2ccc(F)c(Cl)c2)c(F)c1
4,204 to 206 °C,Nc1cccc(C(=O)NCc2ccccc2F)c1
5,126 to 128 °C,Nc1ccc(-n2cncn2)c(F)c1
6,109 to 111 °C,CC(=O)c1ccc(CC(=O)O)cc1
7,61 to 63 °C,Nc1ccc(OCc2cccs2)cc1
8,153 to 155 °C,O=C(O)C1Cc2ccccc2CN1C(=O)CCl (stereo unspecified)
9,147 to 149 °C,Cc1cc(N)nc(C)c1Br
10,272 to 274 °C,O=C(Nc1ccc(C(=O)O)c(O)c1)c1ccc(Cl)c(Cl)c1
11,175 to 177 °C,O=S1(=O)Nc2cccc3cccc1c23
12,199 to 201 °C,Cc1sc2[nH]c(=O)oc(=O)c2c1C
13,186 to 188 °C,Cc1nnc(S)n1N
14,198 to 200 °C,O=C(NC(C(=O)O)c1ccccc1)c1ccccc1 (stereo unspecified)
15,167 to 169 °C,NC(=O)Cc1nc2ccccc2s1
16,109 to 111 °C,C=CCN(c1ccc(OC)cc1)S(=O)(=O)c1ccc(Cl)c(C(=O)O)c1
17,107 to 109 °C,COc1nc(C)ccc1C(=O)O
18,38 to 40 °C,O=C(c1cccnc1)c1c(F)cc(F)cc1F
19,139 to 141 °C,CN(C)S(=O)(=O)c1ccc2nc(Cl)c(Cl)nc2c1
20,28 to 30 °C,Cc1ccc2c(c1)C(=O)CCC2
21,154 to 156 °C,ON=Cc1ccc(OCc2ccccn2)cc1
22,109 to 111 °C,CC(=O)OC(OC(C)=O)c1ccc(S(=O)(=O)Cl)cc1
23,166 to 168 °C,CCCn1c(N)cc(=O)n(C)c1=O
24,145 to 147 °C,CC(O)C(NC(=O)C1CCCC1)C(=O)O (stereo unspecified)
25,177 to 179 °C,Cc1ccc(NC2C=CS(=O)(=O)C2)cc1C (stereo unspecified)

row,melting point,Structure (SMILES)
1,218 to 220 °C,Cc1ccc(-c2nc(C)c(C(=O)O)s2)c(C)c1
2,69 to 71 °C,O=C(O)CCCc1nnc(-c2ccccc2I)o1
3,126 to 128 °C,Cc1ccc(OCCCC(=O)O)c(C)c1
4,235 to 237 °C,Cc1nc(-c2cccc(N)c2)[nH]c1C
5,84 to 86 °C,CNCCNS(=O)(=O)c1ccc(C)cc1
6,171 to 173 °C,COC(=O)C1Nc2ccccc2S(=O)(=O)N1 (stereo unspecified)
7,210 to 212 °C,O=C(O)c1cc(-c2ccccc2)nc2c1cnn2Cc1cccnc1
8,216 to 218 °C,N#CC(C(=O)CCl)c1nc2ccccc2c(=O)[nH]1 (stereo unspecified)
9,120 to 122 °C,O=C(O)CCCNS(=O)(=O)c1ccc2c(c1)OCCO2
10,208 to 210 °C,c1cncc(-c2ncc[nH]2)c1
11,207 to 209 °C,O=C1CNc2ccccc2C(=O)N1
12,87 to 89 °C,Nc1ncc(Br)cc1F
13,161 to 163 °C,O=C(O)C1CCCN1C(=O)c1ccc([N+](=O)[O-])s1 (stereo unspecified)
14,177 to 179 °C,O=Cc1ccc(-c2nc3ccccc3s2)o1
15,100 to 102 °C,COC(=O)c1cc(Cl)c(NC(=O)OCC(F)(F)F)cc1OC
16,202 to 204 °C,CC(=O)NC1(C(N)=NO)CCN(C)CC1
17,225 to 227 °C,Oc1ccc2nccnc2c1
18,174 to 176 °C,COc1cccc2c1OCC(C(=O)O)C2 (stereo unspecified)
19,209 to 211 °C,O=C(O)/C=C/c1ccc(Br)s1
20,167 to 169 °C,Oc1nnc(S)n1CCc1ccccc1
21,159 to 161 °C,CC(=O)N[C@@H](CC(=O)O)C(N)=O
22,77 to 79 °C,c1ccc(NC2CCNC2)cc1 (stereo unspecified)
23,139 to 141 °C,N#CCc1c[nH]c2ncccc12
24,53 to 55 °C,COc1cccc(OC)c1CO
25,206 to 208 °C,Cc1nn(-c2ccccc2)c(C(F)F)c1C(=O)O

row,melting point,Structure (SMILES)
1,121 to 123 °C,Cc1ccc(CC(=O)Nc2cccc(C(C)O)c2)cc1 (stereo unspecified)
2,235 to 237 °C,Nc1ccc(N2CCOCC2)cc1C(=O)O
3,133 to 135 °C,O=c1c2ccccc2nnn1CO
4,182 to 184 °C,O=C(O)c1conc1-c1ccc(Cl)cc1
5,159 to 161 °C,COc1cc(S(=O)(=O)Cl)c(Cl)cc1C(=O)O
6,94 to 96 °C,Cc1cc(C(=O)CCl)c(C)n1Cc1ccc(F)cc1
7,112 to 114 °C,Cc1ccccc1-n1nc(C(C)(C)C)cc1N
8,149 to 151 °C,O=C(O)c1nc(Cl)ccc1F
9,75 to 77 °C,Cc1nn(-c2ccccc2)c(N2CCCCC2)c1C=O
10,172 to 174 °C,Cc1c(C(=O)O)cc(S(N)(=O)=O)cc1[N+](=O)[O-]
11,124 to 126 °C,CN(C)C(=O)Cn1ccc2cc(N)ccc21
12,69 to 71 °C,COC(=O)Cc1ccccc1O
13,179 to 181 °C,Cc1ccc(S(=O)(=O)NC(CC(N)=O)C(=O)O)cc1C (stereo unspecified)
14,102 to 104 °C,CCN(CC)c1ccc(S(N)(=O)=O)cc1N
15,119 to 121 °C,COc1ccc(Nc2n[nH]c(N)c2C#N)cc1
16,44 to 46 °C,CCc1nc(COc2ccc(C(=O)OC)cc2)no1
17,149 to 151 °C,O=S1(=O)Cc2ccc(Cl)cc2N1
18,114 to 116 °C,CC(=O)N1CCN(CCC(=O)O)CC1
19,177 to 179 °C,CCC(C)C1NC(C(=O)O)CS1 (stereo unspecified)
20,172 to 174 °C,NC(Cc1cccc2cccnc12)=NO
21,135 to 137 °C,O=C1OCCN1c1cccc([N+](=O)[O-])c1
22,111 to 113 °C,c1ccc(Cc2nnc3n2CCNC3)cc1
23,172 to 174 °C,CC(C)Oc1cncc(C(=O)O)c1
24,93 to 95 °C,Clc1nnc(-c2ccccc2Cl)s1
25,98 to 100 °C,CCOC(=O)c1cnn(-c2ccc(C(F)(F)F)cn2)c1C(F)(F)F

row,melting point,Structure (SMILES)
1,304 to 306 °C,O=C(O)c1cccc(NC(=O)c2cccnc2)c1
2,149 to 151 °C,CCOc1ccc(NC(=O)CCl)cc1
3,82 to 84 °C,S=c1[nH][nH]c(=NCCc2cccs2)s1
4,39 to 41 °C,ClCc1ncc(-c2ccccc2)s1
5,157 to 159 °C,O=S(=O)(NC1CCNCC1)c1ccccc1
6,92 to 94 °C,Cc1cc(OC(C)C(=O)O)ccc1C(C)C (stereo unspecified)
7,74 to 76 °C,CSc1ccc2c(c1)CCCC2=O
8,92 to 94 °C,O=S(=O)(c1cccc(CCl)c1)N1CCOCC1
9,94 to 96 °C,CC(c1cc(Cl)ccc1Cl)n1nccc1N (stereo unspecified)
10,179 to 181 °C,NC(=S)c1ccc(NC(=O)C2CC2)cc1
11,309 to 311 °C,Cn1c(=O)oc2c(C(=O)O)cccc21
12,99 to 101 °C,Cn1cc(C=O)c(-c2ccc3c(c2)OCCCO3)n1
13,122 to 124 °C,Cc1nccn1-c1ccc(Cl)nn1
14,99 to 101 °C,CCOC(=O)c1nc(Cl)c2ccccc2n1
15,96 to 98 °C,O=C1CCCCC1c1ccc(C(F)(F)F)cc1 (stereo unspecified)
16,77 to 79 °C,CC(C)(C)OC(=O)N1CCC(c2ccc(C(F)(F)F)cc2)C(N)C1 (stereo unspecified)
17,34 to 36 °C,Clc1ccc(-n2cccn2)c(Cl)c1
18,108 to 110 °C,COC(=O)CCNc1nc2ccccc2o1
19,94 to 96 °C,COc1ccc(OC)c(C=NO)c1
20,79 to 81 °C,O=C(O)c1cccc(OC2CCCC2)c1
21,143 to 145 °C,CCOc1ccc(Br)cc1S(N)(=O)=O
22,169 to 171 °C,CC(c1nnc(S)n1-c1ccc(F)cc1)N(C)C (stereo unspecified)

row,Structure (SMILES),melting point
1,CC(C)(C)c1ccc(C=C[N+](=O)[O-])cc1,44 to 46 °C
2,CC(C)C1CNC(=O)C1 (stereo unspecified),98 to 100 °C
3,O=C(O)c1cn(Cc2ccccc2)c2ccccc12,192 to 194 °C
4,ClCc1nnnn1CC1CC1,30 to 32 °C
